{"source": "patent US20240197828A1", "about": "“Chimeric molecule to treat sepsis and other inflammatory conditions” (THE FEINSTEIN INSTITUTES FOR MEDICAL RESEARCH, priority 2022, published 2024)", "key": {"RAW264.7 macrophages": {"test_system": "RAW264.7 macrophages", "test": "Intracellular uptake of FITC-rmCIRP by macrophages (flow cytometry, confocal microscopy)", "assay_type": "cell-based, mouse", "settings": "RAW264.7, FITC-rmCIRP 1 μg/mL co-incubated with test substance (peptide 10 μg/mL), 1 hour, vs FITC-rmCIRP alone", "method": "FIG. 3. Effects of MOP peptides MOP-3, MOP-8 and MOP-14 on eCIRP. Flow cytometry experiment whereby RAW264.7 macrophages were treated for 1 hour according to respective group: PBS (volume-equivalent), FITC-rmCIRP (1 μg/mL), or a mixture of FITC-rmCIRP (1 μg/mL) with each respective peptide (10 μg/mL) after co-incubating for 30 minutes. Intracellular FITC-rmCIRP was analyzed by flow cytometry. Median fluorescence intensity (MFI) reported as percentage relative to PBS-treated RAW264.7 cells. Data from two independent experiments are expressed as mean±SEM and compared by one-way ANOVA and SNK test. *p<0.05 vs. PBS, #p<0.05 vs. eCIRP.\n(§1) Computational modeling was used to determine the likely domain of MFG-E8's binding to eCIRP. The known amino acid (AA) sequence of this domain was used to develop and test potential therapeutic peptides. An MFG-E8 derived oligopeptide, MOP3, was developed based on 15 AA from MFG-E8 discoidin 2 domain (mimicking MFG-E8's C-terminal) and tagged with the 3 AA, RGD, (mimicking MFG-E8's binding capacity for the integrin receptor at the N-terminal). Binding of MOP3 to CIRP was quantified using Surface Plasmon Resonance (SPR) analysis. Macrophages (RAW264.7 cells) were treated with FITC-recombinant mouse (rm)-CIRP or co-incubated MOP3 and FITC-rmCIRP with and without a. Br-integrin Ab. After 1 h, cells were fixed and analyzed for intracellular FITC-rmCIRP by flow cytometry. Macrophages were stimulated with rmCIRP or co-incubated mixture of MOP3 and rmCIRP. After 4 h, cell culture supernatants were analyzed for inflammatory cytokine, TNFα.\nMouse macrophage cell line, RAW264.7 cells were obtained from American Type Culture Collection (ATCC) and cultured in DMEM media with 10% FBS, 1% penicillin and streptomycin, and 1% glutamine. Cells were kept in 37° C. incubator under humidified conditions containing 5% CO2.\nrmCIRP was labeled using a FITC Conjugation Kit (Abcam, ab188285), and rmMFG-E8 was labeled using Alexa Fluor Conjugation Kit (Abcam, ab269821), both according to respective manufacturer's instructions.\nIn order to visualize cellular uptake, we initially utilized TRITC-BSA as an internal probe, as BSA is taken up into cells primarily by endocytosis and retained intracellularly after fixation (27, 28). For further visualization of intracellular localization, we utilized LAMP1 primary antibody (as it is distributed among endolysosomal organelles and serves as a marker for lysosomal compartments) (29), and utilized lysotracker in live cell experiments (as it allows for imaging of dynamics of lysosome vesicle movements) (30). RAW264.7 cells were treated in various conditions with rmCIRP, rmMFG-E8, and inhibitory antibody against auß3-integrin (Bioss antibodies, bs-1310R) for 4 hours. Cells were fixed with 4% paraformaldehyde (PFA), washed with 1×PBS, permeabilized using 0.3% Triton x100, and blocked using 5% BSA 100 mM Glycine in PBS prior to primary antibody treatment. After incubation with secondary antibodies, cells were washed and mounted with ProLong Gold antifade reagent (Invitrogen). For live cell imaging, cells remained in treatment conditions and were imaged under CO2. Staining procedures were performed according to the manufacturers' instructions utilizing respective fluorescent dyes and probes. For all imaging, confocal microscopy images were obtained using a Zeiss LSM880 confocal microscope equipped with a 63× objective. Images were quantified and analyzed using Image J, FIJI.(31) Flow cytometry.\nTo detect changes in internalized eCIRP in the presence of MFG-E8, RAW264.7 cells were seeded in 12-well plates (approximately 3×10^5 cells/well) and were treated with FITC-eCIRP. Treatment groups consisted of FITC-eCIRP, FITC-eCIRP with MFG-E8, FITC-eCIRP with MFG-E8 and αvβ3-integrin antibody (0.5 μg/mL), or FITC-eCIRP with MFG-E8 and IgG isotype (0.5 μg/mL). Similar experiments were conducted with MOP3 instead of MFG-E8 in parallel groups. […]"}, "RAW264.7 cells": {"test_system": "RAW264.7 cells", "test": "eCIRP-induced cytokine release in RAW264.7 cells (ELISA of supernatants)", "assay_type": "cell-based, mouse", "settings": "RAW264.7, rmCIRP 1 μg/mL, 4 hours, vs rmCIRP alone", "method": "FIG. 2. Effects of MOP peptides on TNFα levels. RAW264.7 macrophages were cultured and treated with either volume-equivalent PBS, recombinant murine (rm) CIRP (eCIRP; 1 μg/mL), or rmCIRP with each respective peptide (10 μg/mL). After 4 hours, cell supernatants were assessed for TNFα levels by ELISA. Experiments were performed 3 times, and all data were used for analysis. Data are expressed as mean±SEM and compared by one-way ANOVA and SNK test. *p<0.05 vs. PBS, #p<0.05 vs. eCIRP.\nFIG. 4. eCIRP-induced inflammation is attenuated by MOP3. RAW264.7 cells were treated according to respective groups: PBS (volume equivalent), rmCIRP (1 μg/mL), or rmCIRP with MOP3 at increasing doses. After 4 hours, cell supernatants were analyzed for TNFα levels by ELISA. Experiments were performed 3 times, and all data were used for analysis. Data are expressed as mean #SEM and compared by one-way ANOVA and SNK test. *p<0.05 vs. PBS, #p<0.05 vs. eCIRP.\nas §1\nMouse macrophage cell line, RAW264.7 cells were obtained from American Type Culture Collection (ATCC) and cultured in DMEM media with 10% FBS, 1% penicillin and streptomycin, and 1% glutamine. Cells were kept in 37° C. incubator under humidified conditions containing 5% CO2. […]\nThe mouse macrophage cell culture supernatants were analyzed for cytokine levels using ELISA kits (BD Biosciences, CA). […] TNF-α and IL-6 levels were measured in cell supernatants by ELISA in accordance with respective manufacturers' instructions (BD Biosciences, CA). Blood was collected, centrifuged at 4,000 RPM for 10 minutes, and sera was separated and analyzed for cytokine levels using ELISA kits (BD Biosciences, CA). TNF-α and IL-6 levels in the serum were measured by ELISA in accordance with respective manufacturers' instructions."}}, "data": [{"substance": "MOP3-modification to “RGT”: modified peptide whereby the Arg-Gly-Asp AAs of MOP3 were edited to Arg-Gly-Thr (RGT) (RGTSSSYKTWNLRAFGWY) [reference compound]", "values": [{"measurement": "intracellular FITC-rmCIRP uptake (flow cytometry)", "setting": "RAW264.7 macrophages", "result": "loss of ability to internalize FITC-eCIRP"}]}, {"substance": "RGDPFMARYVRVLPVSWH (listed as Mus musculus) [MOP14, RGD-tagged segment of murine MFG-E8 discoidin domain 2]", "values": [{"measurement": "TNFα levels in cell supernatants", "setting": "RAW264.7 cells", "result": "capable of attenuating TNFα release"}, {"measurement": "intracellular FITC-rmCIRP uptake (flow cytometry)", "setting": "RAW264.7 macrophages", "result": "only a single peptide screened, peptide-3, could increase intracellular uptake"}]}, {"substance": "RGDVTGIITQGARDFGHI (listed as Mus musculus) [MOP8, RGD-tagged segment of murine MFG-E8 discoidin domain 2]", "values": [{"measurement": "TNFα levels in cell supernatants", "setting": "RAW264.7 cells", "result": "capable of attenuating TNFα release"}, {"measurement": "intracellular FITC-rmCIRP uptake (flow cytometry)", "setting": "RAW264.7 macrophages", "result": "only a single peptide screened, peptide-3, could increase intracellular uptake"}]}]}
